Results reported in patent US20140079741A1, “INHIBITION AND TREATMENT OF BIOFILMS” (priority 2011, published 2014).
Entries after “also recorded” stand apart in the source; their conditions may differ.

Tests used:
[1] = system: C. albicans biofilms of wild type CAF2; assay: Biofilm activity assay, crystal violet quantification (BEC50); type: cell-based, Candida albicans
Description: (§1) Biofilm activity assay. The activity of miconazole and fluconazole against 16 h-old C. albicans biofilms (10^7 cells/well) was assessed using the crystal violet quantification method. The biofilm-eradicating capacity of a compound was determined as the minimal concentration resulting in 50% eradication of the biofilm (BEC50).
(§2) Miconazole sensitivity was analyzed of biofilms of C. albicans homozygous null mutants affected in genes involved in the cyclic AMP signaling pathway, namely Δcdc35, Δras1, Δpde1, Δpde2 and Δefg1. To this end, the inventors incubated 16 h-old C. albicans biofilms with various concentrations of miconazole for 24 h and determined the remaining biomass using the crystal violet quantification method.
To this end, cultures of the WT CAF2-1 were grown overnight (2×10^8 cells/ml) in YPD (1% yeast extract, 2% peptone, 2% glucose) and washed 3 times in PBS (pH 7.4). After dilution (OD600=0.5) in SC (1% CSM, complete amino acid supplement mixture, 1% YNB, yeast nitrogen base; 2% glucose), the cultures were resuspended (100 μl/well) in a 96well microtiter plate. After 1 h of adhesion, the adherent WT cells were incubated with or without 500 μg/ml diclofenac and allowed biofilm formation for 16 h. Next, the resulting biofilms were washed with PBS and treated with various concentrations of miconazole for 24 h in the absence or presence of diclofenac. After washing, the remaining biomass was determined using the crystal violet quantification method.
The biofilm-eradicating capacity of a compound was determined as the minimal concentration resulting in 50% eradication of the biofilm (BEC50).

[2] = system: C. albicans reintegrant Δefg1(EFG1) biofilms; assay: as above; type: cell-based, Candida albicans; conditions: for sensitivity of biofilms to miconazole: Δefg1(EFG1)
Description: as §1, §2

[3] = system: C. albicans Δefg1 biofilms; assay: as above; type: cell-based, Candida albicans
Description: as §1, §2

[4] = system: C. albicans biofilm cells; assay: Intracellular accumulation of miconazole in biofilm cells (quantitative HPLC); type: cell-based, Candida albicans
Description: Quantitative analysis of intracellular accumulation of miconazole in C. albicans biofilm cells. […] After incubation, treated biofilms were resuspended and pooled per 5 wells. After centrifugation, samples were taken for cell counting using a Thoma counting chamber, whereafter the pellet was resuspended in 300 μl 70% acetonitrile/30% PBS. Miconazole concentration in the cell lysates was determined using HPLC and normalized to the number of cells in the pellet. Statistical analysis was performed using unpaired student t test; differences were considered significant if p<0.05.
The intracellular accumulation of miconazole in Δefg1 and WT biofilms upon miconazole treatment was determined to investigate whether the increased miconazole sensitivity of Δefg1 biofilms is due to an increased uptake or decreased efflux of miconazole. To this end, 16 h-old Δefg1 and WT C. albicans biofilms were treated with different concentrations of miconazole for 4 h and the concentration of miconazole in the biofilm cells via HPLC analysis was determined.
The intracellular accumulation of miconazole in WT biofilms grown in the prescence or absence of 500 μg/ml diclofenac upon miconazole treatment was determined to investigate whether the increased miconazole sensitivity of diclofenac-treated WT biofilms is due to an increased uptake or decreased efflux of miconazole. […]

[5] = system: C. albicans WT CAF2-1 biofilms; assay: Biofilm cell viability by CellTiter-Blue staining; type: cell-based, Candida albicans; conditions: 24 h
Description: To this end, cultures of the WT CAF2-1 were grown overnight (2*10^8 cells/ml) in YPD (1% yeast extract, 2% peptone, 2% glucose) and washed 3 times in PBS (pH 7.4). After dilution (OD600=0.5) in SC (1% CSM, complete amino acid supplement mixture, 1% YNB, yeast nitrogen base; 2% glucose), the cultures were resuspended (100 μl/well) in a 96well microtiter plate. After 1 h of adhesion, the adherent WT cells were incubated with or without 2 mM (about 500 μg/ml) diclofenac (in DMSO, resulting in final concentration of 2.4% DMSO) and allowed biofilm growth for 16 h in SC. Next, the resulting biofilms were washed with PBS and treated with various concentrations of miconazole (0-500 μM) for 24 h in the absence or presence of diclofenac. After washing, the remaining living cells using the CellTiter-Blue quantification method were determined.
(§3) Using the same setup as above, WT biofilms grown in the presence or absence of diclofenac (0.5-3 mM or 148-888 μg/mL) were incubated with various concentrations of Caspofungin (0-150 μM) for 24 h, both in the presence or absence of diclofenac. After washing, the remaining living cells within the biofilm was determined by CellTiter-Blue quantification. The MIC50 of caspofungin, diclofenac and the combination of both drugs against pretreated or mature C. albicans biofilms was quantified by XTT reduction assay (Ramage et al.).

[6] = system: planktonic cultures of C. albicans CAF2-1; assay: MIC50 against planktonic cultures (NCCLS M27-A3); type: cell-based, Candida albicans; conditions: Candida albicans, planktonic
Description: (§4) Similar results were obtained by determination of the MIC50 values. The susceptibility testing and determination of minimal inhibitory concentrations (MIC) of diclofenac and caspofungin, and combinations thereof that inhibit fungal growth by 50% (MIC50) were performed according the NCCLS M27-A3 protocol (2008).

[7] = system: biofilms of C. albicans CAF2-1; assay: MIC50 against biofilms (XTT reduction assay); type: cell-based, Candida albicans; conditions: for MIC50: Candida albicans
Description: as §3, §4

[8] = system: C. albicans biofilms grown on catheters; assay: In vitro biofilm drug susceptibility on polyurethane catheter pieces (CFU); type: cell-based, Candida albicans
Description: In an alternative setup, in vitro biofilm drug susceptibility assays were performed using serum-coated 1 cm polyurethane catheter pieces (Arrow International Reading) as described previously. Biofilms were grown in RPMI 1640 (pH 7.0) and Candida cells were allowed to adhere to the substrate for 90 min.
Diclofenac (2 mM) was administered during the period of adhesion of C. albicans cells on the catheters and throughout the period of biofilm formation. Catheter fragments containing diclofenac-pretreated or untreated mature biofilms were washed and subsequently incubated with caspofungin (125 μM) or water in the presence or absence of diclofenac (2 mM) for 24 h, respectively. Biofilms were washed and quantified by determination of colony forming units. Untreated biofilms were considered as controls. Statistical analysis was performed using unpaired t-test; differences were considered significant if p<0.05. Data are the mean and SEM of five independent experiments using at least two catheters per test group.
Similar results were obtained when assessing the antibiofilm effect of caspofungin against mature biofilms, which were formed on diclofenac-soaked catheter fragments versus those formed on unsoaked catheter fragments.

[9] = system: C. albicans CAF2 biofilms on implanted catheter fragments; assay: Rat subcutaneous catheter infection model (in vivo biofilm susceptibility); parameters: species or system Candida albicans
Description: A rat subcutaneous catheter infection model was used for in vivo biofilm susceptibility studies, in which 6 rats were treated with sterile saline (control, 40 catheters), 6 rats with diclofenac (48 catheters), 5 rats with caspofungin (40 catheters) and 6 rats with a combination of diclofenac and caspofungin (45 catheters).
Diclofenac and caspofungin solutions for intravenous injection were prepared in sterile physiological solution. The administration of diclofenac (3 mg/kg) started immediately after the catheter implant and continued daily up to 9 days. The treatment with caspofungin (3 mg/kg) was initiated after 48 h of in vivo biofilm development and maintained by daily injections for 7 days. Sterile saline was administered to the control group. Further analysis and quantification of the number of cells per individual biofilm was performed as previously described. Statistical analysis was performed using unpaired t-test; differences were considered significant if p<0.05. Data are the means and SEM of 2 independent experiments. Six independent catheters retrieved from each test group were used for scanning electron microscopy (SEM) analyses. Prior to the SEM analysis, each catheter fragment was cut longitudinally through the lumen and subsequently prepared for microscopy as previously described.

[10] = system: C. albicans biofilm cells; conditions: caspofungin doses 0.05 μM-0.5 μM, background statement; cited from earlier work
C. albicans WT biofilms = assay: Biofilm survival by CFU determination (plating on YPD); type: cell-based, Candida albicans; conditions: WT biofilms grown with 500 μg/ml diclofenac, AmB 2.5-10 μg/ml, 24 h
Description: Using the same setup as in Example 2, WT biofilms grown in the presence or absence of diclofenac (500 μg/ml) or Δefg1 biofilms were incubated with various concentrations of Amphotericin B (AmB) (2.5-10 μg/ml) for 24 h, both in the presence or absence of diclofenac. After washing, the remaining living cells within the biofilm were determined by plating on YPD and determination of colony forming units (CFUs).

[11] = rats, caspofungin 3 mg/kg 7 days with 48 h diclofenac-pretreatment and further diclofenac 3 mg/kg

Clc1ccc(COC(Cn2ccnc2)c2ccc(Cl)cc2Cl)c(Cl)c1 (stereo not shown) [miconazole]
BEC50 (minimal concentration resulting in 50% eradication of the biofilm) ([1]; WT CAF2, 16 h-old biofilms, 24 h treatment, no diclofenac): > 250 µg/mL | BEC50 ([1]; WT biofilms grown and treated in presence of 500 μg/ml diclofenac): 46 µg/mL | sensitivity of biofilms to miconazole ([1]; WT, high miconazole dose 250 μg/ml): resistant | BEC50 ([2]; reintegrant Δefg1(EFG1), 16 h-old biofilms, 24 h treatment): 100 µg/mL | sensitivity of biofilms to miconazole ([2]; high miconazole dose 250 μg/ml): as sensitive to miconazole as Δefg1 biofilms | sensitivity of biofilms to miconazole ([2]; moderate miconazole doses 62-125 μg/ml): intermediate miconazole sensitivity phenotype | BEC50 ([3]; Δefg1, 16 h-old biofilms, 24 h treatment): 25 µg/mL | sensitivity of biofilms to miconazole ([3]; Δefg1, low miconazole dose 31 μg/ml): sensitive | intracellular miconazole levels in diclofenac-treated compared to untreated WT biofilm cells ([4]; 62-250 μg/ml miconazole and 500 μg/ml diclofenac): significantly increased | intracellular miconazole levels in Δefg1 biofilm cells compared to WT biofilm cells ([4]; 62-250 μg/ml miconazole, 4 h): significantly increased | sensitivity to miconazole compared to untreated WT biofilms ([5]; biofilms treated with 2 mM diclofenac, miconazole 0-500 μM): increased sensitivity

CC[C@H](C)C[C@H](C)CCCCCCCCC(=O)N[C@H]1C[C@@H](O)[C@@H](NCCN)NC(=O)[C@@H]2[C@@H](O)CCN2C(=O)[C@H]([C@H](O)CCN)NC(=O)[C@H]([C@H](O)[C@@H](O)c2ccc(O)cc2)NC(=O)[C@@H]2C[C@@H](O)CN2C(=O)[C@H]([C@@H](C)O)NC1=O [caspofungin]
drop of % survival compared to diclofenac-untreated biofilms ([5]; WT biofilms grown with 0.5-3 mM diclofenac, various caspofungin concentrations): about 5 fold | MIC50 ([6]; RPMI 1640, caspofungin alone): < 0.05 µM | MIC50 ([6]; combination of caspofungin and 2 mM diclofenac): 0.23 µM | MIC50 ([7]; biofilms, caspofungin alone): 6 µM | MIC50 ([7]; biofilms, caspofungin in combination with 2 mM diclofenac-pretreatment): < 0.75 µM | MIC50 ([7]; coincubation of mature biofilms with caspofungin and 2 mM diclofenac): 1.5 µM | MIC50 against biofilms relative to MIC50 against planktonic cultures ([7]; caspofungin alone): at least 100 times | FICI ([7]; diclofenac coincubation/caspofungin combination): 0.25 | FICI ([7]; diclofenac pretreatment/caspofungin combination): 0.125 | reduction of the number of biofilm cells compared to control treatment ([8]; 125 μM caspofungin alone, 24 h, untreated/unsoaked catheters): did not result in a statistically significant reduction; also recorded: did not display significant activity | reduction of the number of in vitro biofilm cells compared to untreated biofilms ([8]; 2 mM diclofenac during biofilm growth, then 125 μM caspofungin 24 h): at least 12 fold | reduction of the number of biofilm cells compared to control treatment ([8]; biofilms grown on diclofenac-soaked catheters, 125 μM caspofungin): at least 17 fold | sterile catheter fragments retrieved ([9]; rats treated with both caspofungin and diclofenac): 29% | number of sterile catheters retrieved ([9]; rats treated with both caspofungin and diclofenac (45 catheters)): thirteen | sterile catheter fragments retrieved ([9]; rats treated with caspofungin alone): 7.5% | number of sterile catheters retrieved ([9]; rats treated with caspofungin alone (40 catheters)): three | reduction in biofilm cell numbers compared to control treatment [9, 11]: more than 15 fold | reduction in cell numbers compared to caspofungin treatment alone [9, 11]: more than 5 fold | reduction in the number of surviving biofilm cells compared to control treatment ([9]; rats, caspofungin alone 3 mg/kg daily injections for 7 days): more than 10 fold | biofilm structure by scanning electron microscopy ([9]; rats, caspofungin without diclofenac-pretreatment): biofilm cells formed in minor clusters | biofilm structure by scanning electron microscopy ([9]; rats, diclofenac and caspofungin together): only scattered yeast cells and hyphae were observed | metabolic activity of C. albicans biofilm cells [10]: do not decrease the metabolic activity

C[C@@H]1[C@H](O)[C@@H](C)/C=C/C=C/C=C/C=C/C=C/C=C/C=C/[C@H](O[C@@H]2O[C@H](C)[C@@H](O)[C@H](N)[C@@H]2O)C[C@@H]2O[C@](O)(C[C@@H](O)C[C@@H](O)[C@H](O)CC[C@@H](O)C[C@@H](O)CC(=O)O[C@H]1C)C[C@H](O)[C@H]2C(=O)O [Amphotericin B]
drop of % survival compared to diclofenac-untreated biofilms (C. albicans WT biofilms): about 5 fold
